Data reported in US11802107B2, “Compounds and methods of use” (Signum Biosciences, Inc., priority 2017, dated 2023).

Legend:
Balb/C mice = experiment: Oxazolone-induced delayed-type hypersensitivity (DTH) in vivo model
Protocol: Inbred male Balb/C mice were purchased from Hilltop Lab Animals (Scottdale, PA) and were used between 8 and 10 weeks of age. Mice backs were shaved and 100 μl of 3% v/v Oxazolone (Sigma Aldrich, Cat No. E0753) in acetone/olive oil (4:1) was applied to dorsal skin for sensitization. On Day 7, ears were challenged with 0.5% v/v Oxazolone and 30 minutes after challenge, test materials at 3% w/v were applied to ears (10 μl applied both to the dorsal and ventral surfaces of the mouse ear using a solvent pipette) and 24 hours later, skin thickness (edema) was measured. A 6-mm punch biopsy was obtained from each ear, snap frozen in liquid nitrogen. Ear skin biopsy punches were pulverized using FastPrep®-24 Biopulverizer (MP Biomedical, CatNo. 116004500) and Lysing Matrix A tubes (CatNo. 16910050). Protein extracts were obtained using 500 μL/tissue of cold T-PER buffer (ThermoFisher, CatNo. 78510) with Protease inhibitors (Sigma-Aldich, CatNo. 58820-20TAB). Soluble protein fractions were used to measure cytokine levels (IL-4) using ELISA kit (BD Biosciences® #555232). Results were represented as percent of inhibition relative to unsensitized and sensitized-only treated animals. Vehicle for presently disclosed compounds was 60:40 H2O:EtOH and 1:1 Acetone:EtOH for AN2718. (n=5-15 animals per treatment group).
Compound C was further analyzed at various dosages against 0.4 mg/ear of […] by the above protocol, data representing the average±S.E. of cumulative data from three independent experiments (n=12-15 mice per group) is shown below: […]

IL-5 = experiment: T-cell receptor (anti-CD3/CD28)-induced IL-5 on PBMCs; format: cell-based; conditions: Homo sapiens, PBMC, anti-CD3/CD28 beads, 24 hours, ELISA, read-out: TCR-PBMCs IL-5 Protein IC50
Protocol: (§1) Cryopreserved human Peripheral Blood Mononuclear cells (PBMCs) from healthy adult donors were obtained from Zen Bio, Inc (Cat No. SER-PBMC-F). Cells were cultured in 96-well plates with lymphocyte media (Cat No. LYMPH-1) and were pre-treated with test materials (≤100 μM) for 2 hours and later co-treated with test materials and anti-CD3/CD28 beads (Thermo-Fisher; Cat No. 11131D) at 1:0.4 PBMC:bead ratio for 24 hours at 37° C. and 5% CO2. After incubation, cell media supernatants were harvested and used to measure cytokine levels (IL-4, IL-5, IL-10) using ELISA kits (BD Biosciences® #555194, #555157; R&D Systems® #DY317). Results were represented as percent of inhibition relative to untreated and anti-CD3/CD28 beads-only treated cells. IC50 values were determined by non-linear regression analysis using the four-parameter logistic equation.

IL-8 = experiment: TPA-induced IL-8 on NHEKs; format: cell-based; conditions: Homo sapiens; NHEK, TPA 5 ng/mL, 24 hours, ELISA
Protocol: Normal human epidermal keratinocytes (NHEKs) from neonatal donors were obtained from Thermo-Fisher (Cat No. C-001-5C). Cells were cultured in 96-well plates for 24 hours with EpiLife media (Cat No. MEPI500CA) supplemented with keratinocytes growth supplement (Cat No. S0015). On Day 2, media was removed and replaced with supplement-depleted medium for 24 hours. On Day 3, media was removed and cells were pre-treated with test materials (≤1 μM) for 2 hours and later co-treated with test materials and TPA (Sigma Aldrich, Cat No. P8139) at 5 ng/mL and incubated for 24 hours at 37° C. and 5% CO2. After incubation, cell media supernatants were harvested and used to measure pro-inflammatory cytokine levels (IL-8) using ELISA kit (BD Biosciences® #555244). Results were represented as percent of inhibition relative to untreated and TPA-only treated cells. IC50 values were determined by non-linear regression analysis using the four-parameter logistic equation.

IL-10 = experiment: T-cell receptor (anti-CD3/CD28)-induced IL-10 on PBMCs; format: cell-based; conditions: Homo sapiens, PBMC, anti-CD3/CD28 beads, 24 hours, ELISA, read-out: TCR-PBMCs IL-10 Protein IC50
Protocol: as §1

TNF (TNF-α) = experiment: P. acnes-induced TNF-α gene on human PBMCs (qPCR); format: cell-based; conditions: PBMC, PBMCs + live P. acnes 1:1, test material 30 PM, 24 hours, read-out: TNFa-Gene % inhibition
Protocol: (§2) Cryopreserved human Peripheral Blood Mononuclear cells (PBMCs) from healthy adult donors were obtained from Zen Bio, Inc (Cat No. SER-PBMC-F). Cells were cultured in 12-well plates with lymphocyte media (Cat No. LYMPH-1) and incubated with test materials ([…]) and live P. acnes (ATCC® 6919TM) at 1:1 PBMC: P. acnes bacteria ratio for 24 hours at 37° C. and 5% CO2. After incubation, cell media supernatants were harvested and used to measure pro-inflammatory cytokine levels (IL-8, TNF-α, IL-1b, IL-17) using ELISA kits (BD Biosciences® #557966, #555212, #555244; R&D Systems® #DY317). Total RNA was extracted from cells using the RNAqueous® kit (Ambion®; Cat No. 1912) and cDNA was obtained using the High Capacity RNA-to-cDNA kit (Applied Biosystems®; Cat No. 4387406). Quantitative PCR (qPCR) was performed using the TaqMan® Fast Advanced Master Mix (Applied Biosystems®; Cat No. 4444556) and specific TaqMan®-probes human gene primers CXCL8 (IL-8), IL1B (IL-1b), TNF (TNF-α), IL17A (IL-17A) and GAPDH to calculate the relative gene fold expression change per treatment. Gene expression analysis was performed using the comparative Ct method (also known as the 2-[delta][delta]Ct) approach by comparing the Ct values of P. acnes-only treated cells with the untreated samples and normalized to GAPDH gene expression as endogenous housekeeping gene.

IL17A (IL-17A) = experiment: P. acnes-induced IL-17 gene on human PBMCs (qPCR); format: cell-based; conditions: PBMC, PBMCs + live P. acnes 1:1, test material 30 PM, 24 hours
Protocol: as §2

[1] = Mus musculus, topical to ears @ 3% w/v, 24 hours, read-out: Edema % inhibition
[2] = topical to ears @ 3% w/v, 24 hours, ear biopsy ELISA

Compound | IC50 (IL-5) [µM] | IC50 (IL-8) [µM] | IC50 (IL-10) [µM] | inhibition in vivo at 3 % strength (Balb/C mice; [1]) [%] | Edema (% inhibition) (Balb/C mice; dose 0.2 Mg/ear, average±S.E.) [%] | MPO (% inhibition) (Balb/C mice; dose 0.2 Mg/ear, average±S.E.) [%] | Edema (% inhibition) (Balb/C mice; dose 0.6 Mg/ear, average±S.E.) [%] | MPO (% inhibition) (Balb/C mice; dose 0.6 Mg/ear, average±S.E.) [%] | Edema (% inhibition) (Balb/C mice; dose 1 Mg/ear, average±S.E.) [%] | MPO (% inhibition) (Balb/C mice; dose 1 Mg/ear, average±S.E.) [%] | IL-4 (% inhibition) (Balb/C mice; [2]) [%] | inhibition at 30 pM (TNF (TNF-α)) [%] | inhibition at 30 pM (IL17A (IL-17A)) [%] | other results
N#Cc1ccc(Oc2ccc3c(c2)COB3O)cc1 [AN2728, reference compound] | 1 | 0.02 | 9 | – | – | – | – | – | – | – | – | – | – | inhibition in vivo at 2 % (Balb/C mice; Mus musculus, topical @2%, 24 hours, read-out: Edema % inhibition): 0%; Edema (% inhibition) (Balb/C mice; dose 0.4 Mg/ear, average±S.E.): 17 ± 5%; IL-4 (% inhibition) (Balb/C mice; dose 0.4 Mg/ear, average±S.E.): 76 ± 9%; MPO (% inhibition) (Balb/C mice; dose 0.4 Mg/ear, average±S.E.): 36 ± 12%; IL-4 (% inhibition) (Balb/C mice; topical @2%, 24 hours): 76 (@2%)
C/C(=C\CSCC(NC(=O)NCC(=O)O)C(=O)O)CCCC(C)CCCC(C)CCCC(C)C (stereo not drawn) [A] | 55 | – | 42 | 44 | – | – | – | – | – | – | – | – | – | –
C/C(=C\CSCC(NC(=O)N(CC(=O)O)CC(=O)O)C(=O)O)CCCC(C)CCCC(C)CCCC(C)C (stereo not drawn) [Compound G] | – | – | – | 41 | – | – | 41 | – | – | – | – | 0 | 0 | –
C/C(=C\CSC[C@H](NC(=O)COCC(=O)O)C(=O)O)CCCC(C)CCCC(C)CCCC(C)C (stereo partly drawn) [Compound T] | 9 | 0.03 | 19 | 31 | 20 ± 4 | 30 ± 14 | 31 ± 6 | 41 ± 18 | 53 ± 8 | 71 ± 3 | 53 | 0 | 0 | –

Continued, in another order:

IC50 (IL-5) [µM] | IC50 (IL-8) [µM] | IC50 (IL-10) [µM] | Compound | inhibition in vivo at 3 % strength (Balb/C mice; [1]) [%] | Edema (% inhibition) (Balb/C mice; dose 0.2 Mg/ear, average±S.E.) [%] | MPO (% inhibition) (Balb/C mice; dose 0.2 Mg/ear, average±S.E.) [%] | Edema (% inhibition) (Balb/C mice; dose 0.6 Mg/ear, average±S.E.) [%] | MPO (% inhibition) (Balb/C mice; dose 0.6 Mg/ear, average±S.E.) [%] | Edema (% inhibition) (Balb/C mice; dose 1 Mg/ear, average±S.E.) [%] | MPO (% inhibition) (Balb/C mice; dose 1 Mg/ear, average±S.E.) [%] | IL-4 (% inhibition) (Balb/C mice; [2]) [%] | inhibition at 30 pM (TNF (TNF-α)) [%] | inhibition at 30 pM (IL17A (IL-17A)) [%] | other results
46 | 0.02 | 34 | C/C(=C\CSC[C@H](NC(=O)N(C)CC(=O)O)C(=O)O)CCCC(C)CCCC(C)CCCC(C)C (stereo partly drawn) [Compound C, (2R)-2-{[(carboxymethyl)(methyl)carbamoyl]amino}-3-{[(2E)-3,7,11,15-tetramethylhexadec-2-en-1-yl]sulfanyl}propanoic acid] | 53 | 23 ± 4 | 22 ± 9 | 53 ± 5 | 67 ± 23 | 72 ± 4 | 81 ± 5 | 41 | 0 | 0 | IL-4 (% inhibition) (Balb/C mice; dose 0.2 Mg/ear, average±S.E.): 33 ± 9%; IL-4 (% inhibition) (Balb/C mice; dose 0.6 Mg/ear, average±S.E.): 41 ± 10%; IL-4 (% inhibition) (Balb/C mice; dose 1 Mg/ear, average±S.E.): 62 ± 11%
63 | – | 39 | C/C(=C\CSC[C@H](NC(=O)N1CCC[C@H]1C(=O)O)C(=O)O)CCCC(C)CCCC(C)CCCC(C)C (stereo partly drawn) [Compound E] | 51 | – | – | 22 | – | 51 ± 9 | – | – | 0 | 0 | –
